# Tested on: P12-Ichikawa
# Experiment: cell viability relative to DMSO control; higher = less cytotoxic
# Details: 48 h
# Method in brief: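 NOMO1 or SEM (500 cells/well) or P12-Ichikawa (1000 cells/well) leukemia cells were adapted for at least four passages in each medium. They were seeded in 1536-well plates (5 μl) and pin-dosed with library compounds in DMSO over an 11-point threefold series, 47 μM to 0.79 nM. CellTiter-Glo One luminescence was read after 48 h at 37°C. Viability is the per-plate percentage relative to DMSO wells, with cell-free wells as background.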
# [1] = HPLM + 10% dialyzed FBS, 0.000781 µM
# [2] = HPLM + 10% dialyzed FBS, 0.00234 µM
# [3] = HPLM + 10% dialyzed FBS, 0.00702 µM
# [4] = HPLM + 10% dialyzed FBS, 0.0211 µM
# [5] = HPLM + 10% dialyzed FBS, 0.0632 µM
# [6] = HPLM + 10% dialyzed FBS, 0.19 µM
# [7] = HPLM + 10% dialyzed FBS, 0.569 µM
# [8] = HPLM + 10% dialyzed FBS, 1.71 µM
# [9] = HPLM + 10% dialyzed FBS, 5.12 µM
# [10] = HPLM + 10% dialyzed FBS, 15.4 µM
# [11] = HPLM + 10% dialyzed FBS, 46.1 µM
# [12] = RPMI 5 mM glucose + 10% FBS, 0.000781 µM
# [13] = RPMI 5 mM glucose + 10% FBS, 0.00234 µM
# [14] = RPMI 5 mM glucose + 10% FBS, 0.00702 µM
# [15] = RPMI 5 mM glucose + 10% FBS, 0.0211 µM
# [16] = RPMI 5 mM glucose + 10% FBS, 0.0632 µM
# [17] = RPMI 5 mM glucose + 10% FBS, 0.19 µM
# [18] = RPMI 5 mM glucose + 10% FBS, 0.569 µM
# [19] = RPMI 5 mM glucose + 10% FBS, 1.71 µM
# [20] = RPMI 5 mM glucose + 10% FBS, 5.12 µM
# [21] = RPMI 5 mM glucose + 10% FBS, 15.4 µM
# [22] = RPMI 5 mM glucose + 10% FBS, 46.1 µM
# [23] = RPMI 5 mM glucose + 10% dialyzed FBS, 0.000781 µM
# [24] = RPMI 5 mM glucose + 10% dialyzed FBS, 0.00234 µM
# [25] = RPMI 5 mM glucose + 10% dialyzed FBS, 0.00702 µM
# [26] = RPMI 5 mM glucose + 10% dialyzed FBS, 0.0211 µM
# [27] = RPMI 5 mM glucose + 10% dialyzed FBS, 0.0632 µM
# [28] = RPMI 5 mM glucose + 10% dialyzed FBS, 0.19 µM
# [29] = RPMI 5 mM glucose + 10% dialyzed FBS, 0.569 µM
# [30] = RPMI 5 mM glucose + 10% dialyzed FBS, 1.71 µM
# [31] = RPMI 5 mM glucose + 10% dialyzed FBS, 5.12 µM
# [32] = RPMI 5 mM glucose + 10% dialyzed FBS, 15.4 µM
# [33] = RPMI 5 mM glucose + 10% dialyzed FBS, 46.1 µM
SMILES,cell viability [1] [%],cell viability [2] [%],cell viability [3] [%],cell viability [4] [%],cell viability [5] [%],cell viability [6] [%],cell viability [7] [%],cell viability [8] [%],cell viability [9] [%],cell viability [10] [%],cell viability [11] [%],cell viability [12] [%],cell viability [13] [%],cell viability [14] [%],cell viability [15] [%],cell viability [16] [%],cell viability [17] [%],cell viability [18] [%],cell viability [19] [%],cell viability [20] [%],cell viability [21] [%],cell viability [22] [%],cell viability [23] [%],cell viability [24] [%],cell viability [25] [%],cell viability [26] [%],cell viability [27] [%],cell viability [28] [%],cell viability [29] [%],cell viability [30] [%],cell viability [31] [%],cell viability [32] [%],cell viability [33] [%]
O=C([O-])C(O)Cc1ccc(O)c(O)c1 (stereo unspecified),109,107,99.1,110,111,106,104,93.7,95.7,90.2,90.1,101,96.6,107,99.6,99.4,98.3,92.6,90.2,99.9,81.8,83.3,95,99.2,99.9,95.5,92.3,96.8,93.2,87.9,89,74.6,83.5
CC(C)C(C)/C=C/C(C)C1CCC2C3=CC=C4CC(O)CCC4(C)C3CCC21C (stereo unspecified),110,105,97.8,109,99.5,96.6,111,94.4,106,97.8,97.3,99.1,99.4,98.3,106,96.7,98.4,102,97.6,93.5,94.5,92.2,91.1,94.8,102,97.1,103,96.7,97.5,96.8,92.8,91,89.4
CN[S+](=O)([O-])Cc1ccc2[nH]cc(CCN(C)C)c2c1,110,122,112,118,123,126,123,123,116,120,126,115,123,125,116,128,119,131,136,125,130,131,106,113,113,122,119,121,128,131,121,127,121
COc1cc2c(cc1-c1c(C)noc1C)ncc1[nH]c(=O)n([C@H](C)c3ccccn3)c12,107,109,111,111,115,105,103,86.2,44.2,48.9,12.2,107,110,101,111,115,99.2,110,92.1,48.3,48.5,23.1,112,106,109,104,105,105,101,90.2,52.4,48.6,22.4
CNC1CCC(N(Cc2cccc(-c3ccncc3)c2)C(=O)c2sc3ccccc3c2Cl)CC1 (stereo unspecified),96.9,102,107,99.9,97.3,99.7,107,13.8,4.58,1.97,0.291,89.2,92.9,91.4,96.6,94.5,94.8,102,61.3,4.21,3.93,1.13,79.1,86.1,86.9,95.8,86.2,94.4,97.1,44.7,4.4,3.5,0.803
CC(=O)Nc1ccc(OC[C@](C)(O)C(=O)Nc2ccc([N+](=O)[O-])c(C(F)(F)F)c2)cc1,74.6,87,84.5,87.8,85.5,89.1,88.4,88.6,90.8,91.6,86.5,63.5,76.8,71.1,87,85.5,77,80.6,83.8,85.1,86.3,81.2,67.3,76.4,77.3,78.2,92.5,76.4,80,83.4,80.3,85.8,80.7
OC1=CC=C(C=C1)\C2=C\OC3=C(C=CC(=C3)O)C2=O,112,107,105,97.2,110,104,102,99.2,92.7,102,98.1,98.3,90.4,103,99.1,100,87,90.9,89.5,92.9,86.9,89.7,100,96.3,95.4,99.9,97.3,96.7,95.8,98.1,93.1,90.3,88
